Source: US6184217A (Cephalon, Inc., priority 1997, dated 2001)

Assays:
LPS-induced death = assay: Prevention of LPS-induced death in mice; format: in vivo; conditions: 30 mg/kg ip 2 h before LPS (2 mg/mouse)
Description: Forty mice were divided into three groups, two groups consisting of ten mice and one group of twenty mice. Administrations of vehicles, LPS, and Compound A were intraperitoneal. Group 1 (n=10) mice received vehicle (phosphate buffered saline for LPS, 200 μl/mouse) at time zero and vehicle for Compound A (200 μl/mouse) 2 hours later. Group 2 (n=10) mice received the vehicle for Compound A at zero time (200 μl/mouse) and LPS (2 mg in 200 μl/mouse) for two hours later. Group 3 (n=20) received Compound A (30 mg/kg in 200 μl of vehicle) at time zero and LPS (2 mg in 200 μl/mouse) two hours later.

[1] = test system: acrylamide-induced peripheral neuropathy; assay: Acrylamide-induced peripheral neuropathy, landing foot spread; format: in vivo, Sprague-Dawley rats; conditions: 0.3 mg/kg/day s.c.; acrylamide 50 mg/kg IP three times/week for three weeks (FIG. 5)
Source text: Acrylamide produces a "dying back" central-peripheral distal neuropathy in humans and animals. The lesion is a mixed sensory/motor neuropathy characterized by weakness, tremor and ataxia in humans. In animals, acrylamide produces changes in behavior (sensory, motor and proprioceptive), histopathology, electrophysiology and weight loss. In the periphery, large diameter, long axon, Ab fibers are preferentially affected by acrylamide. In rats, acrylamide administration produces an axonopathy as measured by increased landing foot spread (LFS), a measure of proprioception.
It differs from other chemically-induced models (such as chemotherapeutic models) in that the duration is relatively short (3 weeks) and the animals are in relatively good health.
Male Sprague-Dawley rats weighing 250 grams at the start of the experiment were used. Acrylamide (50 mg/kg, IP) was administered three times/week for three weeks. The animals were dropped from a height of 30 cm and the distance between the hindfeet was recorded (Edwards, P. M. and Parker, V. H. (1977) "A simple, sensitive, and objective method for early assessment of acrylamide neuropathy in rats." Toxicol. Appl Pharmacol, 40:589-591). Compound A (0.1, 0.3 or 1.0 mg/kg, s.c. in 5% solutol) was administered once daily for the duration of the experiment.

[2] = test system: nucleus basalis magnocellularis; assay: T-maze rewarded alternation task after bilateral nbm lesion; format: in vivo, Sprague-Dawley rats; conditions: 0.1 mg/kg s.c. every other day until 12 days post-lesion; tested 10-12 weeks later
Description: Adult male Sprague-Dawley rats were first trained to alternate responses in a standard rewarded-alternation T-maze task (Hepler et al., J. Neurosci., 5:866-873, 1985). The animals then received bilateral lesions of the nucleus basalis magnocellularis, to impair performance in T-maze tasks (e.g., Salamone et al., Behav. Brain Res., 13:63-70, 1984). Beginning 18 hours after the lesion, the animals received Compound A via subcutaneous injection (0.1 mg/kg) every other day until 12 days post-lesion. Twenty-four hours following the last injection all animals were placed in the T-maze once a day, until their alternation performance reached pre-operative levels, which took anywhere from 3 to 10 days. After reaching criterion, the animals were not further tested for 8-10 weeks. At that point the animals were again placed in the T-maze, once a day until they reached pre-operative performance.

monoamine oxidase-B = monoamine oxidase-B (Homo sapiens, UniProt P27338); assay: Monoamine oxidase-B inhibition in vitro; conditions: FIG. 2
[3] = test system: striatal tyrosine hydroxylase (dopaminergic neurons); assay: Striatal tyrosine hydroxylase activity in low-dose MPTP-treated mice; format: in vivo, C57 black mice; conditions: MPTP 20 mg/kg, 7 days
Description: Experiments were conducted using Compound A in MPTP-lesioned dopaminergic neurons in mice (MPTP mouse model). A single s.c. dose of MPTP (20 mg/kg) provided to C57 black mice produced approximately 60% loss of striatal tyrosine hydroxylase activity. Administration of Compound A, at daily doses ranging from 0.01 to 10 mg/kg (s.c.), to such MPTP-treated mice reduced the loss of striatal tyrosine hydroxylase activity.
(§1) Mice were treated with MPTP (20 mg/kg; s.c.) 4-6 hours after the first Compound A injection. Compound A was then injected every day until the end of the experiment, which was 7 days in duration. Striata were assessed for tyrosine hydroxylase enzyme activity. Asterisk indicates statistically significant difference (p<0.05) from MPTP-Vehicle treated animals.

[4] = test system: striatal tyrosine hydroxylase (dopaminergic neurons); assay: Striatal tyrosine hydroxylase activity in high-dose MPTP-treated mice; format: in vivo; conditions: MPTP 40 mg/kg s.c., 7 days
Description: In a separate experiment, the activities of Compound A were assessed in a high dose MPTP-mouse model. A single 40 mg/kg injection of MPTP produced a 95% depletion in striatal tyrosine hydroxylase enzyme activity 7 days post-injection. Administration of Compound A at daily doses of between 0.03 and 3.0 mg/kg reduced the magnitude of the lesion, in a dose dependent manner.
as §1, with “(40” for “(20”, “hrs” for “hours”, “experiment” for “experiment,”

IL-1β = assay: LPS-induced IL-1β in the serum of mice; format: in vivo, C57BL mice; conditions: LPS dose 1.0 ip; 30 mg/kg ip 2 h before LPS; vehicle 300 ± 87; N = 8
Description: Sixty female C57BL mice (4-6 weeks old) were divided into six groups, each with 10 animals. Three groups (1,3,5) received vehicle only (PBS containing 0.1% TEA (tetraethyl ammonium hydrochloride)), 200 μl/mouse via intraperitoneal (ip) administration. The other three groups (2,4,6) received Compound A (30 mg/kg in 200 μl, ip) of vehicle (PBS containing 10% of the ethyl ester of 12-hydroxystearic acid; solutol). Two hours later, the animals received by ip administration, 0.1 mg/kg of LPS (groups 1 & 2), 0.5 mg/kg of LPS (groups 3 & 4), and 1.0 mg/kg of LPS (groups 5 % 6). Two hours after LPS administration, all of the animals were sacrificed, and plasma samples were obtained and assayed for their […] and IL-1β content. Assays were carried out as described in Example 8.
The numbers in are the group numbers as described above. N indicates the number of animals from which plasma measurements where made. ND=not done.

monoamine oxidase-B, sequence (P27338 whole entry): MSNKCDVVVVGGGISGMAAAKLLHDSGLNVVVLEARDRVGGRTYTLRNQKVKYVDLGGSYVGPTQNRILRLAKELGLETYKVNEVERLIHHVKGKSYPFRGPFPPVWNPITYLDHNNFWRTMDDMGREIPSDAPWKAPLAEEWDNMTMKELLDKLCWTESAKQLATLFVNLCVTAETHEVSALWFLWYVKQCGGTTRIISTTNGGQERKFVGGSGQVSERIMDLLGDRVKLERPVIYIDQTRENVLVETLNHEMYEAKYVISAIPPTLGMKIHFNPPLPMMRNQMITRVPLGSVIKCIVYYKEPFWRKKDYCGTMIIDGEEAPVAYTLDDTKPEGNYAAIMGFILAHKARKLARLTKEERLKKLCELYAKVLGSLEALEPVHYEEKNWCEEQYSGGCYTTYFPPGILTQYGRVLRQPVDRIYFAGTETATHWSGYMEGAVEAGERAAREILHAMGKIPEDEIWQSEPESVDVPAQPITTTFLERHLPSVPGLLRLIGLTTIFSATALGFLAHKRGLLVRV

CCSCc1ccc2c(c1)c1c3c(c4c5cc(CSCC)ccc5n5c4c1n2C1CC(O)(C(=O)OC)C5(C)O1)CNC3=O (stereo not drawn) [Compound A]
mortality one week after LPS (LPS-induced death): 80% | mortality at 20 hours after LPS (LPS-induced death; LPS alone 90% within 20 hours): 25% | mortality at 42 hours after LPS (LPS-induced death; LPS alone 100% by 42 hours): 75% | increase in landing foot spread (LFS) produced by acrylamide [1]: reduced the magnitude of the increase in LFS | total number of errors in T-maze task compared to normals [2]: not different from normals | monoamine oxidase-B inhibition (monoamine oxidase-B): not a monoamine oxidase-B inhibitor | % of Unlesioned Control ([3]; 0.01 mg/kg s.c. daily): 41 ± 5.3% | Striatal TH Activity (± SEM) ([3]; 0.01 mg/kg s.c. daily): 7.76 ± 1.23 | % of Unlesioned Control ([3]; 0.03 mg/kg s.c. daily): 55 ± 3.9% | Striatal TH Activity (± SEM) ([3]; 0.03 mg/kg s.c. daily): 10.48 ± 0.92 | % of Unlesioned Control ([3]; 0.10 mg/kg s.c. daily): 60 ± 6.5% | Striatal TH Activity (± SEM) ([3]; 0.10 mg/kg s.c. daily): 11.51 ± 0.80 | % of Unlesioned Control ([3]; 0.30 mg/kg s.c. daily): 62 ± 5.0% | Striatal TH Activity (± SEM) ([3]; 0.30 mg/kg s.c. daily): 11.89 ± 1.34 | % of Unlesioned Control ([3]; 1.0 mg/kg s.c. daily): 54 ± 7.0% | Striatal TH Activity (± SEM) ([3]; 1.0 mg/kg s.c. daily): 10.39 ± 1.39 | % of Unlesioned Control ([3]; 3.0 mg/kg s.c. daily): 51 ± 5.8% | Striatal TH Activity (± SEM) ([3]; 3.0 mg/kg s.c. daily): 9.66 ± 1.10 | % of Unlesioned Control ([3]; 10.0 mg/kg s.c. daily): 51 ± 3.7% | Striatal TH Activity (± SEM) ([3]; 10.0 mg/kg s.c. daily): 9.77 ± 0.70 | % Unlesioned Control ([4]; 0.03 mg/kg daily): 8 ± 2.5% | Striatal TH Activity (± SEM) ([4]; 0.03 mg/kg daily): 1.8 ± 0.6 | % Unlesioned Control ([4]; 0.3 mg/kg daily): 12 ± 2.5% | Striatal TH Activity (± SEM) ([4]; 0.3 mg/kg daily): 2.7 ± 0.6 | % Unlesioned Control ([4]; 3.0 mg/kg daily): 23 ± 8.0% | Striatal TH Activity (± SEM) ([4]; 3.0 mg/kg daily): 5.3 ± 1.8 | IL-1β (IL-1β): 59 ± 19 pg/mL
